Measurements reported in publication PMC10511417, “Salmonid polysialyltransferases to generate a variety of sialic acid polymers” (Scientific Reports, 2023).

System: T1, CmaST8Sia IV (CmaΔ28ST8Sia IV; fish ST8Sia IV)
T1 construct: gene st8sia4; soluble Δ28 form lacking the first 28 residues (cytoplasmic tail and transmembrane domain), N-terminal 3xFLAG (p3×FLAG-CMV9), secreted by HEK293 cells; crude culture medium; ~52 kDa N-glycosylated; cDNA cloned from C. maraena with 1074 bp amplicon; printed XM_041897387 is Coregonus clupeaformis homologue
Experiment: MicroPlate Sialyltransferase Assay (click biotinylation, anti-biotin-HRP), Michaelis-Menten fit
Assay type: biochemical, Coregonus maraena
Details: acceptor CD166/ALCAM 400 ng; cacodylate buffer pH 6.4, 27 °C, 4 h; 0-100 µM donor; crude culture medium as enzyme; read-out: apparent Km

Km: 17.6 ± 2.52 µM
SMILES: C#CCCC(=O)N[C@H]1[C@H]([C@H](O)[C@H](O)CO)OC(OP(=O)(O)OC[C@H]2O[C@@H](n3ccc(N)nc3=O)[C@H](O)[C@@H]2O)(C(=O)O)C[C@@H]1O (stereo partly shown) [CMP-SiaNAl]
